From patent US20080194524A1, “Compounds For the Inhibition of Undesired Cell Proliferation and Use Thereof” (JERINI AG, priority 2003, published 2008)
Where two headings read alike, the source gives them in different places. Where a SMILES comes first, the peptide text is derived from it. [ ]: non-standard residue; d: D form. The star is where a group is joined. Acetyl(2-(piperazin-1-yl)) = O=C(CN1CCNCC1)*; 2Nal = N[C@@H](Cc1ccc2ccccc2c1)C(=O)O; Bta = N[C@@H](Cc1csc2ccccc12)C(=O)O; Benzyl(3,4-Cl2) = Clc1ccc(C*)cc1Cl; Pip = O=C(O)[C@@H]1CCCCN1; CH2PO3H2 = O=P(O)(O)C*; Mpa = O=C(O)CCS

Molecular target: hPin1 (Protein interacting with NIMA (-kinase)) (Homo sapiens, UniProt Q13526)
Assay: protease-coupled PPIase assay, hPin1
Assay type: biochemical
[1] = hPin1 6 nM, substrate Ac-Ala-Ala-Ser(PO3H2)-Pro-Arg-pNA, trypsin, 35 mM HEPES pH 7.8, 6° C., read-out: Specificity of the inhibition with rotamases, Target T-1 (IC50 class)

hPin1 (Protein interacting with NIMA (-kinase)), sequence (Q13526 whole entry): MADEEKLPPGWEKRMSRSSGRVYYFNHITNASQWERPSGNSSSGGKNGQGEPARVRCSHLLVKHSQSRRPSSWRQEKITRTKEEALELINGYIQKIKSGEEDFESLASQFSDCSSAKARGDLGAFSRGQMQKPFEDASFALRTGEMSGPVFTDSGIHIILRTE

Q: Which IC50 [1] does the source give for `NC(=O)[C@H](Cc1ccc2ccccc2c1)NC(=O)[C@@H]1CCCCN1C(=O)[C@H](CSCP(=O)(O)O)NC(=O)CCSCc1ccc(Cl)c(Cl)c1` [Compound 6, {3-[2-(1-Carbamoyl-2-naphthalen-2-yl-ethylcarbamoyl)-piperidin-1-yl]-2-[3-(3.4-dichloro-benzylsulfanyl)-propionylamino]-3-oxo-propylsulfanylmethyl}-phosphonic acid] ([Mpa](Benzyl(3,4-Cl2))C(CH2PO3H2)[Pip][2Nal]-NH2) here?
A: 1000 to 10000 nM

Q: Which IC50 does the source give for `NC(=O)[C@H](Cc1ccc2ccccc2c1)NC(=O)[C@@H]1CCCCN1C(=O)[C@H](CSCP(=O)(O)O)NC(=O)[C@H](Cc1csc2ccccc12)NC(=O)CN1CCNCC1` [Compound 19, {2-[3-Benzo[b]thiophen-3-yl-2-(2-piperazin-1-yl-acetylamino)-propionylamino]-3-[2-(1-carbamoyl-2-naphthalen-2-yl-ethylcarbamoyl)-piperidin-1-yl]-3-oxo-propylsulfanylmethyl}-phosphonic acid] ({Acetyl(2-(piperazin-1-yl))}-[Bta]C(CH2PO3H2)[Pip][2Nal]-NH2) here?
A: < 1000 nM

Q: With `NC(=O)[C@H](Cc1ccc2ccccc2c1)NC(=O)[C@@H]1CCCCN1C(=O)[C@H](CSCP(=O)(O)O)NC(=O)CCc1ccccc1` [Compound 22, [3-[2-(1-Carbamoyl-2-naphthalen-2-yl-ethylcarbamoyl)-piperidin-1-yl]-3-oxo-2-(3-phenyl-propionylamino)-propylsulfanylmethyl]-phosphonicacid] as the compound, how does the IC50 [1] read?
A: < 1000 nM

Q: `O=C(NCc1ccccc1)[C@@H]1CCCCN1C(=O)CSCP(=O)(O)O` [Compound 66, [2-(2-Benzylcarbamoyl-piperidin-1-yl)-2-oxo-ethylsulfanylmethyl]-phosphonic acid] was tested. Which IC50 [1] did it give?
A: 1000 to 10000 nM

Q: `NC(=O)[C@H](Cc1ccc2ccccc2c1)NC(=O)[C@@H]1CCCCN1C(=O)[C@H](CSCP(=O)(O)O)NC(=O)Cc1ccc(N2CCNCC2)cc1` [Compound 62, {3-[2-(1-Carbamoyl-2-naphthalen-2-yl-ethylcarbamoyl)-piperidin-1-yl]-3-oxo-2-[2-(4-piperazin-1-yl-phenyl)-acetylamino]-propylsulfanylmethyl}-phosphonicacid] was tested. Which IC50 [1] did it give?
A: < 1000 nM

Q: `CNC(=O)CC(SCP(=O)(O)O)C(=O)N1CCCC[C@H]1C(=O)N[C@@H](Cc1ccc2ccccc2c1)C(N)=O` (mixture of isomers) [Compound 69, {2-[2-(1-Carbamoyl-2-naphthalen-2-yl-ethylcarbamoyl)-piperidin-1-yl]-1-methylcarbamoylmethyl-2-oxo-ethylsulfanylmethyl}-phosphonic acid] was tested. Which IC50 [1] did it give?
A: 1000 to 10000 nM

Q: With `NC(=O)[C@H](Cc1ccc2ccccc2c1)NC(=O)[C@@H]1CCCCN1C(=O)[C@H](CSCP(=O)(O)O)NS(=O)(=O)c1cccs1` [Compound 53, [3-[2-(1-Carbamoyl-2-naphthalen-2-yl-ethylcarbamoyl)-piperidin-1-yl]-3-oxo-2-(thiophene-2-sulfonylamino)propylsulfanyl-methyl]-phosphonic acid] as the compound, how does the IC50 [1] read?
A: < 1000 nM

Q: Which IC50 does the source give for `NC(=O)[C@H](Cc1ccc2ccccc2c1)NC(=O)[C@@H]1CCCCN1C(=O)[C@H](CSCP(=O)(O)O)NC(=O)C1CSC(=O)N1` (stereo partly shown) [Compound 12, {3-[2-(1-Carbamoyl-2-naphthalen-2-yl-ethylcarbamoyl)-piperidin-1-yl]-3-oxo-2-[(2-oxo-thiazolidine-4-carbonyl)-amino]-propylsulfanylmethyl}-phosphonicacid] here?
A: < 1000 nM

Q: With `CC(=O)N[C@@H](CSCP(=O)(O)O)C(=O)N1CCCC[C@H]1C(=O)N[C@@H](Cc1ccc2ccccc2c1)C(N)=O` [Compound 30, {2-Acetylamino-3-[2-(1-carbamoyl-2-naphthalen-2-yl-ethylcarbamoyl)-piperidin-1-yl]-3-oxo-propylsulfanylmethyl}-phosphonic acid] as the compound, how does the IC50 [1] read?
A: 1000 to 10000 nM

Q: How did the IC50 [1] turn out when `NC(=O)[C@H](Cc1ccc2ccccc2c1)NC(=O)[C@@H]1CCCCN1CCSCP(=O)(O)O` [Compound 55, {2-[2-(1-Carbamoyl-2-naphthalen-2-yl-ethylcarbamoyl)-piperidin-1-yl]-ethylsulfanylmethyl}-phosphonic acid] was run?
A: < 1000 nM

Q: Which IC50 [1] does the source give for `O=C(NC(Cc1ccc2ccccc2c1)c1ccccn1)[C@@H]1CCCCN1C(=O)CSCP(=O)(O)O` (stereo partly shown) [Compound 77, {2-[2-(2-Naphthalen-2-yl-1-pyridin-2-yl-ethylcarbamoyl)-piperidin-1-yl]-2-oxo-ethylsulfanylmethyl}-phosphonicacid] here?
A: < 1000 nM

Q: For `NC(=O)[C@H](Cc1ccc2ccccc2c1)NC(=O)[C@@H]1CCCCN1C(=O)[C@H](CSCP(=O)(O)O)NC(=O)c1cccc(Oc2ccccc2)c1` [Compound 14, [3-[2-(1-Carbamoyl-2-naphthalen-2-yl-ethylcarbamoyl)-piperidin-1-yl]-3-oxo-2-(3-phenoxy-benzoylamino)-propylsulfanylmethyl]-phosphonicacid], which IC50 [1] is on record?
A: < 1000 nM

Q: How did the IC50 [1] turn out when `NC(=O)[C@H](Cc1ccc2ccccc2c1)NC(=O)[C@@H]1CCCCN1C(=O)[C@H](CSCP(=O)(O)O)NS(=O)(=O)c1ccccc1` [Compound 48, {2-Benzenesulfonylamino-3-[2-(1-carbamoyl-2-naphthalen-2-yl-ethylcarbamoyl)-piperidin-1-yl]-3-oxo-propylsulfanylmethyl}-phosphonic acid] was run?
A: < 1000 nM

Q: How did the IC50 [1] turn out when `NC(=O)[C@H](Cc1ccc2ccccc2c1)NC(=O)[C@@H]1CCCCN1C(=O)[C@H](CSCP(=O)(O)O)NC(=O)CCCCc1ccccc1` [Compound 8, [3-[2-(1-Carbamoyl-2-naphthalen-2-yl-ethylcarbamoyl)-piperidin-1-yl]-3-oxo-2-(5-phenyl-pentanoylamino)-propylsulfanylmethyl]-phosphonicacid] was run?
A: < 1000 nM

Q: `COC(=O)N[C@@H](CSCP(=O)(O)O)C(=O)N1CCCC[C@H]1C(=O)N[C@@H](Cc1ccc2ccccc2c1)C(N)=O` [Compound 45, {3-[2-(1-Carbamoyl-2-naphthalen-2-yl-ethylcarbamoyl)-piperidin-1-yl]-2-methoxycarbonylamino-3-oxo-propylsulfanylmethyl}-phosphonic acid] was tested. Which IC50 [1] did it give?
A: 1000 to 10000 nM

Q: For `NC(=O)[C@H](Cc1ccc2ccccc2c1)NC(=O)[C@@H]1CCCCN1C(=O)[C@H](CSCP(=O)(O)O)NC(=O)OCC1c2ccccc2-c2ccccc21` [Compound 17], which IC50 [1] is on record?
A: 1000 to 10000 nM

Q: For `NC(=O)[C@H](Cc1ccc2ccccc2c1)NC(=O)[C@@H]1CCCCN1C(=O)[C@H](CSCP(=O)(O)O)NC(=O)CCCC(=O)c1ccc(Cl)cc1` [Compound 7, {3-[2-(1-Carbamoyl-2-naphthalen-2-yl-ethylcarbamoyl)-piperidin-1-yl]-2-[5-(4-chloro-phenyl)-5-oxo-pentanoylamino]-3-oxo-propylsulfanylmethyl}-phosphonicacid], which IC50 [1] is on record?
A: < 1000 nM

Q: Which IC50 [1] does the source give for `CCCCOC(=O)N[C@@H](CSCP(=O)(O)O)C(=O)N1CCCC[C@H]1C(=O)N[C@@H](Cc1ccc2ccccc2c1)C(N)=O` [Compound 44, {2-Butoxycarbonylamino-3-[2-(1-carbamoyl-2-naphthalen-2-yl-ethylcarbamoyl)-piperidin-1-yl]-3-oxo-propylsulfanylmethyl}-phosphonic acid] here?
A: 1000 to 10000 nM

Q: With `CNC(=O)[C@H](Cc1ccc2ccccc2c1)NC(=O)[C@@H]1CCCCN1C(=O)CSCP(=O)(O)O` [Compound 64, {2-[2-(1-Methylcarbamoyl-2-naphthalen-2-yl-ethylcarbamoyl)-piperidin-1-yl]-2-oxo-ethylsulfanylmethyl}-phosphonicacid] as the compound, how does the IC50 [1] read?
A: < 1000 nM
